We go through 22 compounds from patent US5994361A, “Substituted purinyl derivatives with immunomodulating activity” (priority 1995, dated 1999).

Read-outs that look alike come from different tables or passages of the source. A value given as a limit tells only on which side of the number the result lay.

Series [1] concerns T cell activity (ConA), spleen mononuclear leukocytes. Put plainly: Mitogenic proliferation on spleen cell suspension, T (ConA). Type of series: cell-based, C57BL-6 mice. The source says: (§1) Mitogenic lectin (mitogen) is a protein which binds and cross-links specific cells surface carbohydrate determinants, and will polyclonally stimulate lymphoid cells. Lymphocyte activation by either antigens or mitogens results in intracellular changes and the subsequent development into a lymphoblast. Mitogenic stimulation of lymphocytes in vitro is believed to mimic the series of events which occur in vivo following their stimulation by specific antigens. PHA, ConA, and PWM, LPS mitogens can be used as a measurement of T cell and B cell activity, respectively.
(§2) Briefly, spleen mononuclear leukocytes from C57BL-6 mice were incubated in the presence or absence of mitogens with or without tested drugs. After 72 hours or 5 days, ^3 H thymidine incorporation was recorded as an indication of cell transformation and proliferation.
(§3) 100 μl of a suspension of 2×10^6 cells/ml (2×10^5 cells/well) were incubated in presence of PHA or ConA or PWM or LPS at the following concentrations:
(§4) PHA=0.01% final concentration-0.001%
(§5) Cells were incubated in presence or absence of drugs for 72 hours. 0.5 or 1 μCi of tritiated thymidine (^3 H) was added per well the last 18 or 6 hours of incubation respectively. Cells were harvested and counted on a Beta counter.

Series [2] has as its system B cell activity (LPS), spleen mononuclear leukocytes. The series is described as follows: Mitogenic proliferation on spleen cell suspension, B (LPS). Type of series: cell-based, C57BL-6 mice.
Excerpt: as §1, §2, §3, §4, §5

Series [3] concerns cytotoxic T lymphocytes, P815 target cells. Put plainly: Cytotoxic T lymphocytes (CTL) assay. Type of series: cell-based, C57B1/6 mice and DBA/2 mice. The following applies: for activation at 10 µM / activation at 0.1 µM / activation at 0.001 µM: Mus musculus, P815, 120 h, read-out: CTL activity, % increase compared to IL2 (100%); for activation at 10 µM: at 10^-5 M; for activation at 0.001 µM: at 10^-9 M. As for the experimental part: (§6) Mixed lymphocyte reaction is an in vitro counterpart of the allograft rejection. Briefly, T cell response was obtained when cells taken from two inbred strains from two outbred individuals of any species were mixed in vitro in culture.
(§7) After 4 days incubation, ^3 H thymidine uptake and cytotoxicity assay (CTL) were performed.
(§8) 3 C57B1/6 mice and 3 DBA/2 mice wre killed and lymphocytes prepared using lympholyte M. The cell concentration was adjusted to 10×10^6 cell/ml for each lysis. DBA/2 cells were irradiated with 3000 Rads. 1 ml of the C57 cells+1 ml of the DBA/2 cells+1 ml of the drug at 3 different concentrations were incubated together for 5 days. Positive control was IL-2 at 15 ng/ml final. After 5 days, the CTL and MLR tests were carried out.
P815 target cells were labelled with Cr^51. After labelling, the cells were resuspended to 5×10^4 cells/ml.
100 μl of target cells+100 μl Of T cells were incubated for 4 hrs and then 100 μl of supernatant was counted using a gamma counter.

In series [4] the test system is T cell response (mixed lymphocyte reaction). The series is described as follows: Mixed lymphocyte reaction (MLR) assay. Type of series: cell-based, C57B1/6 mice and DBA/2 mice. As for the experimental part: as §6, §7, §8
The cells were resuspended and 100 μl of cell suspension were deposited in each of the 96 wells in the plate, 50 μl of Thymidine at 20 μCi/ml was added for 6 hrs. The cells were then collected and counted using a beta counter.

Another series has as its system immune system. The following applies: prior art; cited from earlier work.
The conditions of series [5]: prior art; cited from earlier work.
[6] abbreviates: at 10^-12 - 10^-6 (M), 4320 min.

With `CN(C)c1ncnc2c1ncn2CCCCCOC(=O)N[C@@H](CCCNC(=N)N)C(=O)O` [Compound #2, N,N-Dimethylaminopurinyl Pentoxycarbonyl L-Arginine], the “T (ConA) mitogenic proliferation” value in series [1] (at 10^-8 - 10^-5 (M), 4320 min) is 2 - 4 ×. For the same compound, in series [2] (concentration not given), the “B (LPS) mitogenic proliferation” value is 0. Besides, the “CTL activity, % increase compared to IL2 (100%)” value (“CTL activity, % increase” for short) in series [3] (concentration not given) was 0 (less than 20%). Besides, the MLR in series [4] (at 10^-7 - 10^-5 M) is recorded as 1.5 - 2 ×.
Take `CNc1ncnc2c1ncn2CCCCCOC(=O)N[C@H](CCCNC(=N)N)C(=O)O` [Compound #3, N-Monomethylaminopurinyl Pentoxycarbonyl D-Arginine]: the “T (ConA) mitogenic proliferation” value in series [1] (setting [6]) is on record as 2 - 6 ×. Besides, the “B (LPS) mitogenic proliferation” value in series [2] (at 10^-8 - 10^-6 (M), 4320 min) was 2 - 2.5 ×. Also, the activation at 10 µM in series [3] lay within 20 to 40%. The compound also came in with an MLR in series [4] (at 10^-9 - 10^-5 M) of 1.5 ×.
As for `CNc1ncnc2c1ncn2CCCCCO` [Compound #3a, N-(6-N-Methyl-Aminopurin-9-yl)-pentanol], the “CTL activity, % increase” value in series [3] (at 10^-9 - 10^-7 M) is on record as “+++ (60-80%)”. The MLR in series [4] (at 10^-9 - 10^-5 M) is 1.5 - 2.9 ×.
`N=C(N)NCCC[C@@H](NC(=O)OCCCCCn1cnc2c(N)ncnc21)C(=O)O` [Compound #5, Aminopurinyl Pentoxycarbonyl D-Arginine]: the activation at 0.1 µM in series [3] (at 10^-7 M) was in the range of 20 to 40%. The MLR in series [4] (at 10^-7 - 10^-5 M) is 1.5 - 2 ×.
`Nc1ncnc2c1ncn2CCCCCO` [Compound #5a, N-(6-Aminopurin-9-Yl) 5-Pentanol]: the “CTL activity, % increase” value in series [3] (at 10^-7 - 10^-5 M) is given as “++ (40-60%)”. In series [4] (at 10^-9 - 10^-6 M, 7200 min), the MLR is recorded as 1.5 - 2 ×.
Turning to `N=C(N)NCCC[C@H](NC(=O)OCCCCCn1cnc2c(N)ncnc21)C(=O)O` [Compound #6, Aminopurinyl Pentoxycarbonyl L-Arginine], in series [3], the activation at 0.001 µM is 60 to 80%. The MLR in series [4] (at 10^-9 - 10^-5 M) is recorded as 1.5 - 3 ×.
`N=C(N)NCCC[C@@H](NC(=O)OCCCCCn1cnc2c(NN)ncnc21)C(=O)O` [Compound #7, Hydrazinopurinyl Pentoxycarbonyl D-Arginine]: in series [1] (at 10^-12 - 10^-8 (M), 4320 min), the “T (ConA) mitogenic proliferation” value is given as 2 - 6 ×. Moreover, in series [2] (concentration not given), the “B (LPS) mitogenic proliferation” value was found to be 0. The activation at 0.001 µM in series [3] lay in the range of 60 to 80%. Further, in series [4] (at 10^-9 - 10^-6 M, 7200 min), the MLR is reported as 1.5 - 2 ×.
On to `NNc1ncnc2c1ncn2CCCCCO` [Compound #7a, N-(6-Hydrazinopurin-9-yl) 5-Pentanol], for which the activation at 0.001 µM in series [3] (preliminary result) is > 80%. In addition, the MLR in series [4] (at 10^-9 - 10^-5 M, preliminary result) was found to be 2 ×.
Turning to `N=C(N)NCCC[C@H](NC(=O)OCCCCCn1cnc2c(NN)ncnc21)C(=O)O` [Compound #8, Hydrazinopurinyl Pentoxycarbonyl L-Arginine], the activation at 0.001 µM in series [3] was > 80%. In addition, the MLR in series [4] (at 10^-9 - 10^-5 M) is on record as 1.5 - 2 ×.
With `N=C(N)NCCC[C@@H](NC(=O)OCCCCCn1cnc2c(Cl)ncnc21)C(=O)O` [Compound #9, Chloropurinyl Pentoxycarbonyl D-Arginine], the “T (ConA) mitogenic proliferation” value in series [1] (setting [6]) is 2 - 3.5 ×.
As for `N=C(N)NCCC[C@@H](NC(=O)OCCCCCn1cnc2c(=O)[nH]cnc21)C(=O)O` [Compound #11, Hydroxypurinyl Pentoxycarbonyl D-Arginine], the activation at 0.1 µM in series [3] (at 10^-7 M) was 40 to 60%. Further, the MLR in series [4] (at 10^-7 - 10^-5 M) is 2 - 2.5 ×.
`OCCCCCn1cnc2cncnc21` [Compound #19, N-9-purinyl-5-pentanol]: the activation at 0.1 µM in series [3] (at 10^-7 M, preliminary result) was 40 to 60%. Besides, the MLR in series [4] (concentration not given, preliminary result) is given as 0.
`N=C(N)NCCC[C@@H](NC(=O)OCCCCCn1cnc2cncnc21)C(=O)O` [Compound #20, N-9-purinyl-7-pentyloxycarbonyl-D-arginine]: the activation at 10 µM in series [3] lay within 40 to 60%.
For `COc1ncnc2c1ncn2CCCCCO` [Compound #51, N-(6-methoxypurin-9-yl) 5-pentanol], the activation at 0.1 µM in series [3] (at 10^-7 M) fell in the range of 40 to 60%. Also, in series [4] (at 10^-9 - 10^-6 M, 7200 min), the MLR is given as 1.5 - 2 ×.
As for `OCCCCCn1cnc2c(S)ncnc21` [Compound #59, N-(6-Mercaptopurin-9-yl)-pentanol], the activation at 0.001 µM in series [3] is 40 to 60%. For the same compound, in series [4] (at 10^-9 - 10^-5 M), the MLR is 2 - 2.4 ×.
`CSc1ncnc2c1ncn2CCCCCO` [Compound #60, N-(6,-N-Methylthiopurin-9-yl)-pentanol]: the activation at 0.1 µM in series [3] (at 10^-7 M) was 20 to 40%. In series [4] (at 10^-9 - 10^-5 M), the MLR is recorded as 1.7 - 2 ×.
For the compound `OCCCCCn1cnc2c(Cl)ncnc21` [Compound #III, N-(6-Chloropurin-9-yl)-5-pentanol], the activation at 0.1 µM in series [3] (at 10^-7 M) was 60 to 80%. For the same compound, in series [4] (at 10^-9 - 10^-5 M), the MLR is listed as 1.5 - 2.5 ×.
Turning to `CN(C)c1ncnc2c1ncn2CCCCCO` [Compound #V, N-(6-N,N-Dimethylaminopurin-9-yl)-pentanol], in series [3] (at 10^-7 M), the activation at 0.1 µM is 60 to 80%. Besides, the MLR in series [4] (at 10^7 - 10^5 M (so in the source)) is reported as 1.5 - 2 ×.
Take `O=c1[nH]cnc2c1cnn2CCCCCO` [ST 689, allopurinol pentanol, reference compound]: the “CTL activity, % increase” value in series [3] (at 10^-7 M, preliminary result) is on record as “++++ (80+)”. The MLR in series [4] (at 10^-5 M, preliminary result, 10 µM) is 1.6 ×. The immunomodulating activity result with immune system is listed as “not significantly more immunostimulatory than ST 789”.
As for `N=C(N)NCCC[C@H](NC(=O)OCCCCCn1cnc2c(=O)[nH]cnc21)C(=O)O` [ST 789, reference compound], the “T (ConA) mitogenic proliferation” value in series [1] (concentration not given) was 0. Also, in series [2] (at 10^-8 - 10^-5 (M), 4320 min), the “B (LPS) mitogenic proliferation” value is on record as 1.5 - 3 ×. The activation at 0.1 µM in series [3] (at 10^-7 M) lay within 40 to 60%. Besides, the MLR in series [4] (at 10^-9 - 10^-5 M) is 2 - 3 ×. Also, the “stimulation of cytotoxic T lymphocytes (CD8+ T cells)” value in the series with immune system is recorded as “no indication”.
Turning to `Oc1ncnc2[nH]ncc12` [allopurinol], in the series on immune system, the immunomodulating activity entry was “immunosuppressive”.
Regarding isoprinosine, the immunomodulating activity result in the series on immune system was “not an effective immunomodulator”. Also, in series [5], the toxicity entry is recorded as “very nontoxic”.
